According to US11986471B2, “Compounds and methods of use” (Tango Therapeutics, Inc., priority 2018, dated 2024):

Assays:
PRMT5 [1] = biological target: T1, PRMT5 (Homo sapiens, UniProt O14744); test: PRMT5 IC50 assay in the presence of MTA as cofactor; format: biochemical; details: for IC50: PRMT5, MTA as cofactor
T1 construct: purchased Viva (custom protein)
In short: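 Potency against PRMT5 is compared across cofactor states, where IC50 equals Ki×1.5 with SAM present and Ki×13.5 with MTA present.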

HAP1 MTAP-intact = test: SDMA in-cell western assay, HAP1 MTAP-intact cell line; format: cell-based; details: Homo sapiens
In short: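 IC50 values come from SDMA in-cell western staining of HAP1 cells. The MTAP-intact line carries endogenous MTAP, while its MTAP-deleted counterpart lacks MTAP entirely. A selectivity ratio of at least 3 fold marks a compound as MTAP-selective.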

HAP1 MTAP-deleted = test: SDMA in-cell western assay, HAP1 MTAP-deleted cell line; format: cell-based; details: for IC50: Homo sapiens, HAP1 MTAP-deleted cell line; for MTAP Intact/Deleted Ratio: IC50 ratio HAP1 MTAP-intact / HAP1 MTAP-deleted
In short: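 Readout is cellular SDMA signal by in-cell western, with IC50 values derived from it. The cells are MTAP-null HAP1, matched to an isogenic MTAP-intact HAP1 line.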

PRMT5 [2] = biological target: T1, PRMT5; test: PRMT5 IC50 assay with no cofactor; format: biochemical
In short: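 Enzyme: human PRMT5. Conditions: plus SAM, plus MTA, or cofactor-free. Output: IC50 (μM); Ki via IC50/1.5 (SAM) or IC50/13.5 (MTA).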

PRMT5 [3] = biological target: T1, PRMT5; test: PRMT5 IC50 assay in the presence of SAM as cofactor; format: biochemical
In short: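 Results given as IC50 (μM), from which Ki follows by dividing by 1.5 in the SAM condition or by 13.5 in the MTA condition. The ratio of SAM Ki to MTA Ki indicates MTA-cooperative preference.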

[4] = ratio between the Ki in the presence of SAM and the Ki in the presence of MTA
[5] = ratio between Ki in the presence of SAM and Ki in the presence of MTA

T1 sequence (O14744 whole entry): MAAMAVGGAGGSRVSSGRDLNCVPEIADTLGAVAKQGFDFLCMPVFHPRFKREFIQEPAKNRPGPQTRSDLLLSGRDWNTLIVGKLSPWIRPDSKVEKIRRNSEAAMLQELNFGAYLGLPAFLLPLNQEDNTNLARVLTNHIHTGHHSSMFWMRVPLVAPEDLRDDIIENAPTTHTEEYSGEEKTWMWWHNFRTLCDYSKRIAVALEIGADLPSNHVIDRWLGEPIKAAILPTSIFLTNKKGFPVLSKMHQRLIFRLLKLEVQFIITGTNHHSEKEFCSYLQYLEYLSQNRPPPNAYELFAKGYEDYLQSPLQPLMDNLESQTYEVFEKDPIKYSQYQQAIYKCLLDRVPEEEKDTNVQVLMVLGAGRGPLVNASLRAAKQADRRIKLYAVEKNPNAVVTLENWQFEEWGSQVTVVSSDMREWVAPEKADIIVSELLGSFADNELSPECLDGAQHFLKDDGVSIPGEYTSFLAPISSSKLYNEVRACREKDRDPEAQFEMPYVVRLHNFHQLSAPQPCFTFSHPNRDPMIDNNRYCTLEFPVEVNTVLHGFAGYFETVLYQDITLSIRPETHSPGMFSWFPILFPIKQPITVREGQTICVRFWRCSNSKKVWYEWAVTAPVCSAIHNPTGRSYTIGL
T1 sequence (Q9BQA1 whole entry partner): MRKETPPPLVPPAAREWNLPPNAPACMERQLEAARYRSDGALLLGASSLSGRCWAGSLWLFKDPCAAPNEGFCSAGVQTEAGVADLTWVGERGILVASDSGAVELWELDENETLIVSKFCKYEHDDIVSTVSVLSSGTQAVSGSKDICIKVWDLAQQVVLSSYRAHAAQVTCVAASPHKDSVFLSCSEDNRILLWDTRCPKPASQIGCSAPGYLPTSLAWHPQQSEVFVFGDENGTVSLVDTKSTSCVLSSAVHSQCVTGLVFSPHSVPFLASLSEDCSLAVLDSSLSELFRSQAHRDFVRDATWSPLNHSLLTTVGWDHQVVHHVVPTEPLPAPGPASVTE

SMILES | IC50 (PRMT5 [1]) [nM] | IC50 (HAP1 MTAP-intact) [nM] | IC50 (HAP1 MTAP-deleted) [nM] | IC50 (PRMT5 [2]) [nM] | IC50 (PRMT5 [3]) [nM] | IC50 (PRMT5 [2]; read-out: No Co-factor IC50) [nM] | SAM/MTA Ratio (PRMT5 [1]; [4]) | MTAP Intact/Deleted Ratio (HAP1 MTAP-deleted) | SAM/MTA Ratio (PRMT5 [1]; [5])
O=C(NC[C@H](O)CN1CCc2c(ccc(OCc3cnco3)c2Cl)C1)c1cncc(NC2CCOC2)c1 (stereo partly drawn) [Compound 359, N—((S)-3-(5-chloro-6-(oxazol-5-ylmethoxy)-3N-dihydroisoquinolin-2(1H)-yl)-2-hydroxypropyl)-5-((tetrahydrofuran-3-yl)amino)nicotinamide] | 500 to 5000 | ≥ 10000 | 1000 to 10000 | – | 500 to 5000 | ≥ 5000 | – | C* (an IC50 ratio of less than 3 fold between the IC50 in the HAP1 MTAP-intact cell line and the HAP1 MTAP-deleted cell line) | A (a Ki ratio greater than or equal to 10 fold between the Ki in the presence of SAM and the Ki in the presence of MTA)
CC(=O)N1CCC(Nc2cc(C(=O)NC[C@H](O)CN3CCc4cc(OCc5cnco5)ccc4C3)ncn2)CC1 [Compound 135, 6-[(1-acetyl-4-piperidyl)amino]-N-[(2S)-2-hydroxy-3-[6-(oxazol-5-ylmethoxy)-3,4-dihydro-1H-isoquinolin-2-yl]propyl]pyrimidine-4-carboxamide] | 50 to 500 | 1000 to 10000 | 1000 to 10000 | – | 50 to 500 | ≥ 5000 | – | C* (an IC50 ratio of less than 3 fold between the IC50 in the HAP1 MTAP-intact cell line and the HAP1 MTAP-deleted cell line) | A (a Ki ratio greater than or equal to 10 fold between the Ki in the presence of SAM and the Ki in the presence of MTA)
O=C(NC[C@H](O)CN1CCc2c(ccc(OCc3cn[nH]c3)c2Cl)C1)c1ccnc(NC2CCC2)c1 [Compound 280, N-[(2S)-3-[5-chloro-6-(1H-pyrazol-4-ylmethoxy)-3,4-dihydro-1H-isoquinolin-2-yl]-2-hydroxy-propyl]-2-(cyclobutylamino)pyridine-4-carboxamide] | 500 to 5000 | < 1000 | < 1000 | – | 50 to 500 | ≥ 5000 | – | C* (an IC50 ratio of less than 3 fold between the IC50 in the HAP1 MTAP-intact cell line and the HAP1 MTAP-deleted cell line) | –
O=C(NC[C@H](O)CN1CCc2c(ccc(OCc3cnco3)c2Br)C1)c1cccc(NC2CCC2)c1 [Compound 348, (S)—N-(3-(5-bromo-6-(oxazol-5-ylmethoxy)-3,4-dihydroisoquinolin-2(1H)-yl)-2-hydroxypropyl)-3-(cyclobutylamino)benzamide] | 500 to 5000 | ≥ 10000 | ≥ 10000 | – | 500 to 5000 | ≥ 5000 | – | C* (an IC50 ratio of less than 3 fold between the IC50 in the HAP1 MTAP-intact cell line and the HAP1 MTAP-deleted cell line) | A (a Ki ratio greater than or equal to 10 fold between the Ki in the presence of SAM and the Ki in the presence of MTA)
Cc1ncoc1COc1ccc2c(c1)CCN(C[C@@H](O)CNC(=O)c1cc(NC3CCC3)nc(N3CCN(C)CC3)c1)C2 [Compound 485, 2-(cyclobutylamino)-N-[(2S)-2-hydroxy-3-{6-[(4-methyl-1,3-oxazol-5-yl)methoxy]-1,2,3,4-tetrahydroisoquinolin-2-yl}propyl]-6-(4-methylpiperazin-1-yl)pyridine-4-carboxamide] | 50 to 500 | < 1000 | < 1000 | 500 to 5000 | 50 to 500 | – | A (a Ki ratio greater than or equal to 10 fold between the Ki in the presence of SAM and the Ki in the presence of MTA) | C* (an IC50 ratio of less than 3 fold between the IC50 in the HAP1 MTAP-intact cell line and the HAP1 MTAP-deleted cell line) | –
CC(=O)N1CCC(Nc2cc(C(=O)NC[C@H](O)CN3CCc4c(ccc(OCc5ocnc5C)c4Cl)C3)ncn2)CC1 [Compound 256, (S)-6-((1-acetylpiperidin-4-yl)amino)-N-(3-(5-chloro-6-((4-methyloxazol-5-yl)methoxy)-3N-dihydroisoquinolin-2(1H)-yl)-2-hydroxypropyl)pyrimidine-4-carboxamide] | 50 to 500 | ≥ 10000 | 1000 to 10000 | – | 50 to 500 | ≥ 5000 | – | C* (an IC50 ratio of less than 3 fold between the IC50 in the HAP1 MTAP-intact cell line and the HAP1 MTAP-deleted cell line) | A (a Ki ratio greater than or equal to 10 fold between the Ki in the presence of SAM and the Ki in the presence of MTA)

More lines, main results first:

IC50 (PRMT5 [1]) [nM] | IC50 (HAP1 MTAP-intact) [nM] | IC50 (HAP1 MTAP-deleted) [nM] | IC50 (PRMT5 [2]) [nM] | IC50 (PRMT5 [3]) [nM] | IC50 (PRMT5 [2]; read-out: No Co-factor IC50) [nM] | SMILES | SAM/MTA Ratio (PRMT5 [1]; [4]) | MTAP Intact/Deleted Ratio (HAP1 MTAP-deleted) | SAM/MTA Ratio (PRMT5 [1]; [5])
50 to 500 | 1000 to 10000 | 1000 to 10000 | ≥ 5000 | 500 to 5000 | – | Cc1c(OCc2cnco2)ccc2c1CCN(C[C@@H](O)CNC(=O)c1cc(NC3CCC3)ccn1)C2 [Compound 515, 4-(cyclobutylamino)-N-[(2S)-2-hydroxy-3-{5-methyl-6-[(1,3-oxazol-5-yl)methoxy]-1,2,3,4-tetrahydroisoquinolin-2-yl}propyl]pyridine-2-carboxamide] | A (a Ki ratio greater than or equal to 10 fold between the Ki in the presence of SAM and the Ki in the presence of MTA) | C* (an IC50 ratio of less than 3 fold between the IC50 in the HAP1 MTAP-intact cell line and the HAP1 MTAP-deleted cell line) | –
50 to 500 | 1000 to 10000 | < 1000 | ≥ 5000 | 50 to 500 | – | CCCC(=O)N1CC(Nc2cc(C(=O)NC[C@H](O)CN3CCc4cc(OCc5cnco5)ccc4C3)ccn2)C1 [Compound 434] | A (a Ki ratio greater than or equal to 10 fold between the Ki in the presence of SAM and the Ki in the presence of MTA) | C* (an IC50 ratio of less than 3 fold between the IC50 in the HAP1 MTAP-intact cell line and the HAP1 MTAP-deleted cell line) | –
50 to 500 | 1000 to 10000 | 1000 to 10000 | 500 to 5000 | 50 to 500 | – | O=C(NC[C@H](O)CN1CCc2cc(OCc3cnco3)ccc2C1)c1ccnc(NC2CN(C(=O)C3CC3)C2)c1 [Compound 563, 2-[[1-(cyclopropanecarbonyl)azetidin-3-yl]amino]-N-[(2S)-2-hydroxy-3-[6-(oxazol-5-ylmethoxy)-3,4-dihydro-1H-isoquinolin-2-yl]propyl]pyridine-4-carboxamide] | A (a Ki ratio greater than or equal to 10 fold between the Ki in the presence of SAM and the Ki in the presence of MTA) | C* (an IC50 ratio of less than 3 fold between the IC50 in the HAP1 MTAP-intact cell line and the HAP1 MTAP-deleted cell line) | –
50 to 500 | ≥ 10000 | 1000 to 10000 | – | 50 to 500 | ≥ 5000 | CCN1CCN(c2nc(NC3COC3)cc(C(=O)NC[C@H](O)CN3CCc4c(ccc(OCc5ocnc5C)c4C)C3)n2)CC1 [Compound 385, 2-(4-ethylpiperazin-1-yl)-N-[(2S)-2-hydroxy-3-{5-methyl-6-[(4-methyl-1,3-oxazol-5-yl)methoxy]-1,2,3,4-tetrahydroisoquinolin-2-yl}propyl]-6-[(oxetan-3-yl)amino]pyrimidine-4-carboxamide] | – | C* (an IC50 ratio of less than 3 fold between the IC50 in the HAP1 MTAP-intact cell line and the HAP1 MTAP-deleted cell line) | A (a Ki ratio greater than or equal to 10 fold between the Ki in the presence of SAM and the Ki in the presence of MTA)
50 to 500 | 1000 to 10000 | 1000 to 10000 | ≥ 5000 | 500 to 5000 | – | Cc1ncoc1COc1ccc2c(c1)CCN(C[C@@H](O)CNC(=O)c1ccc(OC3CCOCC3)cc1)C2 [Compound 475, N-[(2S)-2-hydroxy-3-{6-[(4-methyl-1,3-oxazol-5-yl)methoxy]-1,2,3,4-tetrahydroisoquinolin-2-yl}propyl]-4-(oxan-4-yloxy)benzamide] | A (a Ki ratio greater than or equal to 10 fold between the Ki in the presence of SAM and the Ki in the presence of MTA) | C* (an IC50 ratio of less than 3 fold between the IC50 in the HAP1 MTAP-intact cell line and the HAP1 MTAP-deleted cell line) | –
50 to 500 | < 1000 | < 1000 | – | 50 to 500 | 500 to 5000 | Cc1ncoc1COc1ccc2c(c1)CCN(C[C@@H](O)CNC(=O)c1ccc(OC3CCN(Cc4ccccc4)CC3)cc1)C2 [Compound 392] | – | C* (an IC50 ratio of less than 3 fold between the IC50 in the HAP1 MTAP-intact cell line and the HAP1 MTAP-deleted cell line) | A (a Ki ratio greater than or equal to 10 fold between the Ki in the presence of SAM and the Ki in the presence of MTA)
< 50 | ≥ 10000 | < 1000 | 500 to 5000 | 50 to 500 | – | CC(=O)N1CCC(Nc2cc(C(=O)NC[C@H](O)CN3CCc4cc(OCc5ocnc5C)ccc4C3)ccn2)CC1 [Compound 622, (S)-2-((1-acetylpiperidin-4-yl)amino)-N-(2-hydroxy-3-(6-((4-methyloxazol-5-yl)methoxy)-3,4-dihydroisoquinolin-2(1H)-yl)propyl)isonicotinamide] | A (a Ki ratio greater than or equal to 10 fold between the Ki in the presence of SAM and the Ki in the presence of MTA) | A* (an IC50 ratio greater than or equal to 10 fold between the IC50 in the HAP1 MTAP-intact cell line and the HAP1 MTAP-deleted cell line) | –
